Experimental data: patent US6274568A, “Compounds for altering cell surface sialic acids and methods of use therefor” (priority 1999, dated 2001)

How the values were obtained:
[1] = in vitro; details: ng108-15 cells
Procedure: Cell growth rates were determined in control cultures (.box-solid.), in cultures treated with 0.08 mM (.circle-solid.), 0.25 mM (.smallcircle.), or 1 mM (.quadrature.) ManNGcPA, and in cultures treated with 0.25 mM (.tangle-solidup.) or 1 mM (Δ) glucose pentaacetate.
NG108-15 cells were maintained in Dulbecco's modified Eagle's medium (high glucose formulation) containing 5% iron-enriched calf serum, 100 μM hypoxanthine, 16 μM thymidine, and 5 μM aminopterin. […] Both cell types were cultured at 37° C. in a humidified atmosphere of 90% air/10% CO2. For treatment with sialic acid precursors, mannosamine derivatives were diluted into the appropriate medium and filter sterilized. […] In experiments testing ManNGcPA, all cells (control and experimental) were grown in the presence of 0.5% (v/v) DMSO, the carrier for ManNGcPA.

[2] = test system: NG108-15 cells; assay: O-acetylation state of NeuGc in ManNGcPA-treated NG108-15 cells, thin layer chromatography; assay type: cell-based, mouse neuroblastoma/rat glioma hybrid; details: 1 mM, 48 h
Procedure: O-Acetylated sialic acids from bovine submaxillary mucin served as standards. […] A portion of the organic/aqueous soluble pool (predominantly free sialic acids) was subjected to silicic acid thin layer chromatography using propanol-water (1:1) as developing solvent and resorcinol reagent for detection. Sialic acids released from bovine submaxillary mucin, which contain primarily O-acetylated forms of NeuAc (as well as NeuAc, NeuGc, and O-acetylated forms of NeuGc) were prepared and used as positive controls. Lane 1, bovine submaxillary mucin sialic acids; Lane 2, mucin sialic acids pretreated with concentrated ammonium hydroxide for 2 h at ambient temperature to selectively deplete O-acetyl groups; Lane 3, NeuAc standard; Lane 4, NeuGc standard; Lane 5, extract from ManNGcPA-treated NG108-15 cells. O-Acetylated forms of NeuGc, which are reported to migrate 60-100% farther than the parent NeuGc in this system, appear to be absent from the cell extract.

[3] = test system: MAG-Fc chimera; assay: MAG-Fc binding to precursor-treated NG108-15 cells by flow cytometry; assay type: cell-based
Procedure: Flow cytometry was used to test binding of a soluble MAG-Fc chimera to precursor-treated and control NG108-15 cells. A chimeric protein consisting of the entire extracellular domain of MAG fused via a three amino acid bridge (TGK) to the human Fc domain was produced using the "pIgPlus" vector (Novagen, Madison, Wis.). A PCR fragment coding for the extracellular domain of MAG was prepared using MAG in pCDM8 as template (Yang et al., 1996a), the T7 5' primer […] (SEQ ID NO:1) and […] (SEQ ID NO:2) as the 3' primer. The fragment was cut with BamHI and HindIII and directionally cloned into the pIgPlus vector. The resulting construct was sequenced to confirm its identity, transfected into COS cells, and the resulting MAG-Fc chimera was purified from the culture medium using Protein G affinity chromatography.
For MAG binding studies, NG108-15 cells were cultured in the presence of sialic acid precursors for the indicated times, then were released from culture dishes using hypertonic Ca^2+ /Mg^2+ -free phosphate-buffered saline (Yang et al., Proc. Natl. Acad. Sci. USA., 93:814, 1996) and resuspended (at […]) in 25 mM Hepes-buffered Hanks balanced salt solution (Bashor, Methods Enzymol., 58:119, 1979) containing 5 mg/ml bovine serum albumin. MAG-Fc (6 μg) was added to 100 μl of the same buffer containing 6 μg fluorescein isothiocyanate-labeled goat anti-human Fc (Jackson Immunoresearch, West Grove, Pa.) and incubated on ice for 1 h 45 min with frequent mixing. Cell suspension (100 μl containing 50,000 cells) was added to the premixed antibody solution and the mixture incubated on ice for 45 min. The cells were then centrifuged for 4 sec at 16,000×g and washed three times by resuspension in 200 μl of buffer with bovine serum albumin and centrifugation. The resulting cell pellet was resuspended in 100 μl buffer with bovine serum albumin and flow cytometry was performed on an Epics Profile II cytometer (Coulter Corp, Hialeah, Fla.).
NG108-15 cells, a mouse neuroblastoma/rat glioma hybrid, display many qualities of cholinergic neurons, including neurite outgrowth, synthesis, storage and release of acetylcholine, and functional synapse formation with muscle cells in vitro. Neurite outgrowth from NG108-15 cells is inhibited by MAG (McKerracher et al., Neuron, 13:805, 1994), an interaction which is reversed by pretreatment of the cells with neuraminidase (Schnaar et al., Ann. N.Y. Acad. Sci., 845:92, 1998). […] Binding was quantified by flow cytometry. […]

de-O-acetylation prior to or coordinate with metabolism to sialic acid [2]: apparently complete de-O-acetylation
Structure (SMILES): CC(=O)OCC(=O)N[C@@H]1C(OC(C)=O)O[C@H](COC(C)=O)[C@@H](OC(C)=O)[C@@H]1OC(C)=O (some centres unmarked) [ManNGcPA, N-glycolylmannosamine pentaacetate]
viability at 70 h, 1000 µM [1]: 76%
O-acetylated NeuGc in the precursor pool [2]: no significant proportion of O-acetylated NeuGc
inhibition of MAG-Fc binding ([3]; 0.25 mM or 1 mM, 96 h): ≈ 70%
inhibition of specific binding of MAG-Fc ([3]; 1 mM, 144 h, compared to control cells): 95%
